Results on 28 compounds are retold here after patent US11332459B2 (TEIJIN PHARMA LIMITED, priority 2017, dated 2022).

Where a name gives a salt, the structure may show the parent alone.

This assay deals with T1, human TRPC6 (Homo sapiens, UniProt Q9Y210).
T1 construct: expressed in transfected cells
T1 sequence (Q9Y210 1-931): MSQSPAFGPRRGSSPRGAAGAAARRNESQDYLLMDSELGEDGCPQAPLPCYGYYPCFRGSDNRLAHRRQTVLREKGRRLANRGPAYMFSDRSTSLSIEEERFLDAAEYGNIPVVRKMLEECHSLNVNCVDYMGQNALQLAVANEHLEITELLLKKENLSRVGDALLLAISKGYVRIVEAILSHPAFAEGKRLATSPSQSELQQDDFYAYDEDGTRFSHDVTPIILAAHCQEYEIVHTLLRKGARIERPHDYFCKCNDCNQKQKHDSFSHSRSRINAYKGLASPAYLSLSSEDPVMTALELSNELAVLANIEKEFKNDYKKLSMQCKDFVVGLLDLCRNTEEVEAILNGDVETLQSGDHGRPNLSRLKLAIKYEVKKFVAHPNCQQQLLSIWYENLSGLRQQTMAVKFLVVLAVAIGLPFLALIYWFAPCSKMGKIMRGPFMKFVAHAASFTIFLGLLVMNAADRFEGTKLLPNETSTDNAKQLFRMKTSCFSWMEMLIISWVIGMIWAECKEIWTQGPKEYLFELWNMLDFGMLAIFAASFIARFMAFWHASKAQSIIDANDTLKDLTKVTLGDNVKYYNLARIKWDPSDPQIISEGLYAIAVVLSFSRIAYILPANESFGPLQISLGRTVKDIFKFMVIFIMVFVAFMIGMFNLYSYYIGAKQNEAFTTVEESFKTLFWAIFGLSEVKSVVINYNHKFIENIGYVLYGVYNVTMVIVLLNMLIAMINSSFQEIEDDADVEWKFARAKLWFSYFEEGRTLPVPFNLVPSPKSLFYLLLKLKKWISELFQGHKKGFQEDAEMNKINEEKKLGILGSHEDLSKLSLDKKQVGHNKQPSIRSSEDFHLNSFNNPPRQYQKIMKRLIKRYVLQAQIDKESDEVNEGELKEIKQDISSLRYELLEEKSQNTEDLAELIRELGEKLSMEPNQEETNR
Briefly: TRPC6 calcium flux assay (FLIPR, OAG-stimulated calcium influx). The conditions noted are these: HEK293 cells stably transfected with human TRPC6, read-out: hTRPC6 Potency. It counts as cell-based. In outline:
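HEK293 cells stably expressing human TRPC6, loaded with calcium dye 90–120 min at RT, then given compound for 25 min before OAG (50 uM final, 0.5% DMSO) in HEPES buffer pH 7.2 with 2 mM CaCl2. Background-subtracted FLIPR peak over 180 s normalized to OAG vs buffer; IC50 from dose plot.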
For orientation: A change in cytosolic calcium serves as a functional read-out for many receptors and channels.
On to `N#Cc1ccc(Cn2c(N3CC[C@@H](F)[C@H](N)C3)nc3cc(F)ccc32)nc1` [Example 49, 6-((2-((3R,4R)-3-amino-4-fluoropiperidin-1-yl)-5-fluoro-1H-benzo[d]imidazol-1-yl)methyl)nicotinonitrile hydrochloride], for which the IC50 worked out at 1.09 nM. `N#Cc1ccc(Cn2c(N3CC4CCC(N)C4C3)nc3ccccc32)cc1` (stereo not shown) [Example 169, 4-((2-(4-aminohexahydrocyclopenta[c]pyrrol-2(1H)-yl)-1H-benzo[d]imidazol-1-yl)methyl)benzonitrile]: the IC50 came to 14.2 nM. With `N#Cc1ccc(Cn2c(N3CCC[C@H](N)C3)nc3ccc(Cl)cc32)cc1` [Example 421, (S)-4-((2-(3-aminopiperidin-1-yl)-6-chloro-1H-benzo[d]imidazol-1-yl)methyl)benzonitrile], the IC50 was 0.54 nM. For `N#Cc1ccc(Cn2c(N3CC[C@H](F)[C@H](N)C3)nc3ccc(F)cc32)nc1` [Example 47, 6-((2-((3R,4S)-3-amino-4-fluoropiperidin-1-yl)-6-fluoro-1H-benzo[d]imidazol-1-yl)methyl)nicotinonitrile hydrochloride], the IC50 was 0.686 nM. Take `N[C@@H]1CN(c2nc3cc(F)c(F)cc3n2Cc2ccc(F)cc2F)CC[C@H]1F` [Example 351, (3R,4R)-1-(1-(2,4-difluorobenzyl)-5,6-difluoro-1H-benzimidazol-2-yl)-4-fluoro-3-piperidinamine]: the IC50 was 10.3 nM. On to `CC(C)C1CCN1C(=O)Cn1c(N2CC[C@@H](F)[C@H](N)C2)nc2cc(F)c(F)cc21` (stereo partly drawn) [Example 625, 2-(2-((3R,4R)-3-amino-4-fluoropiperidin-1-yl)-5,6-difluoro-1H-benzo[d]imidazol-1-yl)-1-(2-isopropylazetidin-1-yl)ethanone], for which the IC50 was determined as 105 nM. On to `C[C@@H](c1ccc(C#N)cn1)n1c(N2CC[C@H]3OCCN[C@@H]3C2)nc2c(F)cc(F)cc21` [Example 270, 6-((1S)-1-(4,6-difluoro-2-((4aR,8aR)-hexahydro-2H-pyrido[4,3-b][1,4]oxazin-6(5H)-yl)-1H-benzimidazol-1-yl)ethyl)-3-pyridinecarbonitrile], for which the IC50 amounted to 51.5 nM. The same measure for `N[C@@H]1CN(c2nc3cc(F)c(F)cc3n2Cc2cccc(OC(F)(F)F)c2)CC[C@H]1F` [Example 364, (3R,4R)-1-(5,6-difluoro-1-(3-(trifluoromethoxy)benzyl)-1H-benzimidazol-2-yl)-4-fluoro-3-piperidinamine]: 1020 nM. As for `N#Cc1ccc(Cn2c(N3CC[C@H](CN)C3)nc3ccccc32)cc1` [Example 179, (R)-4-((2-(3-(aminomethyl)pyrrolidin-1-yl)-1H-benzo[d]imidazol-1-yl)methyl)benzonitrile], the figure is 326 nM. `N#Cc1cc(F)cc2c1nc(N1CC[C@H](F)[C@H](N)C1)n2Cc1ncc(Cl)cn1` [Example 149, 2-((3R,4S)-3-amino-4-fluoropiperidin-1-yl)-1-((5-chloropyrimidin-2-yl)methyl)-6-fluoro-1H-benzo[d]imidazole-4-carbonitrile]: the IC50 is 1.09 nM. With `Cc1nnc(Cn2c(N3CC[C@@H](F)[C@H](N)C3)nc3cc(F)c(F)cc32)o1` [Example 571, (3R,4R)-1-(5,6-difluoro-1-((5-methyl-1,3,4-oxadiazol-2-yl)methyl)-1H-benzo[d]imidazol-2-yl)-4-fluoropiperidin-3-amine], the IC50 worked out at 93.2 nM.

`N[C@@H]1CN(c2nc3cc(F)c(F)cc3n2[C@H]2CCN(c3ccc(Cl)cc3)C2=O)CC[C@H]1F` [Example 247, (S)-3-(2-((3R,4R)-3-amino-4-fluoropiperidin-1-yl)-5,6-difluoro-1H-benzo[d]imidazol-1-yl)-1-(4-chlorophenyl)pyrrolidin-2-one]: the IC50 stood at 75.4 nM.

Consider `N#Cc1ccc(Cn2c(N3CC[C@@H](F)[C@H](N)C3)nc3ncccc32)cc1` (single isomer, unassigned) [Example 415], for which the IC50 stood at 274 nM. Consider `C[C@H](c1ccc(Cl)cn1)n1c(N2CC[C@@H](F)[C@H](N)C2)nc2ccc(Cl)cc21` [Example 221, (3R,4R)-1-(6-chloro-1-((R)-1-(5-chloropyridin-2-yl)ethyl)-1H-benzo[d]imidazol-2-yl)-4-fluoropiperidin-3-amine hydrochloride], for which the IC50 was 54.9 nM.

For the compound `N#Cc1ccc(Cn2c(N3CC[C@@H](CN)C3)nc3ccccc32)cc1` [Example 178, (S)-4-((2-(3-(aminomethyl)pyrrolidin-1-yl)-1H-benzo[d]imidazol-1-yl)methyl)benzonitrile], the IC50 was determined as 47.1 nM. Turning to `CNC(=O)Cn1c(N2CC[C@@H](F)[C@H](N)C2)nc2cc(F)c(F)cc21` [Example 275, 2-(2-((3R,4R)-3-amino-4-fluoro-1-piperidinyl)-5,6-difluoro-1H-benzimidazol-1-yl)-N-methylacetamide], the IC50 is 0.32 nM. Take `N#Cc1ccc(Cn2c(N3CCC[C@H](N)C3)nc3cc(F)cc(F)c32)nc1` [Example 62, (S)-6-((2-(3-aminopiperidin-yl)-5,7-difluoro-1H-benzo[d]imidazol-1-yl)methyl)nicotinonitrile]: the IC50 stood at 60.3 nM. For the compound `CO[C@H]1CCN(c2nc3ccc(F)cc3n2Cc2ccc(C#N)cn2)C[C@H]1N` [Example 463, 6-((2-((3R,4S)-3-amino-4-methoxypiperidin-1-yl)-6-fluoro-1H-benzo[d]imidazol-1-yl)methyl)nicotinonitrile], the IC50 came out at 33.9 nM.

Take `N[C@@H]1CN(c2nc3cc(F)c(F)cc3n2CC(=O)N2CCCCC2)CC[C@H]1F` [Example 281, 2-(2-((3R,4R)-3-amino-4-fluoro-1-piperidinyl)-5,6-difluoro-1H-benzimidazol-1-yl)-1-(1-piperidinyl)ethanone]: the IC50 is 26.9 nM.

As for `N[C@@H]1CN(c2nc3cc(F)c(F)cc3n2Cc2ccc(-n3cncn3)cc2)CC[C@H]1F` [Example 339, (3R,4R)-1-(5,6-difluoro-1-(4-(1H-1,2,4-triazol-1-yl)benzyl)-1H-benzimidazol-2-yl)-4-fluoro-3-piperidinamine], the IC50 stood at 3.23 nM. `C[C@H](c1cccc(Cl)c1)n1c(N2CC[C@@H](F)[C@H](N)C2)nc2cc(F)c(F)cc21` [Example 326, (3R,4R)-1-(1-((1R)-1-(3-chlorophenyl)ethyl)-5,6-difluoro-1H-benzimidazol-2-yl)-4-fluoro-3-piperidinamine]: the IC50 stood at 2930 nM. For `CN(CC(F)(F)F)C(=O)Cn1c(N2CC[C@@H](F)[C@H](N)C2)nc2cc(F)ccc21` [Example 460, 2-(2-((3R,4R)-3-amino-4-fluoropiperidin-1-yl)-5-fluoro-1H-benzo[d]imidazol-1-yl)-N-methyl-N-(2,2,2-trifluoroethyl)acetamide], the IC50 is 24.2 nM. The same measure for `N#Cc1ccc(Cn2c(N3CC[C@H](F)[C@@H](N)C3)nc3ccccc32)cc1` [Example 170, 4-((2-((3S,4S)-3-amino-4-fluoropiperidin-1-yl)-1H-benzo[d]imidazol-1-yl)methyl)benzonitrile]: 25.9 nM; for `N[C@@H]1CN(c2nc3c(F)cc(F)cc3n2Cc2ncc(F)cn2)CC[C@H]1F` [Example 35, (3R,4R)-1-(4,6-difluoro-1-((5-fluoropyrimidin-2-yl)methyl)-1H-benzo[d]imidazol-2-yl)-4-fluoropiperidin-3-amine]: 0.491 nM; for `C[C@@H](c1cccc(Cl)c1)n1c(N2CC[C@@H](F)[C@H](N)C2)nc2cc(F)c(F)cc21` [Example 327, (3R,4R)-1-(1-((1S)-1-(3-chlorophenyl)ethyl)-5,6-difluoro-1H-benzimidazol-2-yl)-4-fluoro-3-piperidinamine]: 1370 nM. Consider `N#Cc1ccc(Cn2c(N3CC[C@H](F)[C@H](N)C3)nc3cc(Cl)ccc32)nc1` [Example 9, 6-((2-((3R,4S)-3-amino-4-fluoropiperidin-1-yl)-5-chloro-1H-benzo[d]imidazol-1-yl)methyl)nicotinonitrile], for which the IC50 was 1.61 nM. For the compound `N#Cc1ccc(Cn2c(N3CCC(F)(F)[C@H](N)C3)nc3cc(F)cc(F)c32)nc1` [Example 67, (R)-6-((2-(3-amino-4,4-difluoropiperidin-1-yl)-5,7-difluoro-1H-benzo[d]imidazol-1-yl)methyl)nicotinonitrile], the IC50 was 272 nM. As for `N#Cc1ccc2nc(N3CC[C@H](F)[C@H](N)C3)n(Cc3ncc(Cl)cn3)c2c1` [Example 203, 2-((3R,4S)-3-amino-4-fluoropiperidin-1-yl)-1-((5-chloropyrimidin-2-yl)methyl)-1H-benzo[d]imidazole-6-carbonitrile], the figure is 598 nM.
